Data from patent US10485769B2, “Cholesteryl ester transfer protein (CETP) inhibition in the treatment of cancer” (KING ABDULLAH UNIVERSITY OF SCIENCE AND TECHNOLOGY, priority 2015, dated 2019).

How the values were obtained:
CETP = CETP activity in mice plasma, CETP activity assay kit; assay type: in vivo; conditions: 5 mg/kg AP, compared to Vehicle
Protocol: FIG. 7: Levels of CETP mRNA in tumor (A) and protein in serum (B) in mice tumor samples after treatment with 2 mg/kg PL or 5 mg/kg AP were determined with the RT-PCR and western blotting, respectively. Fold change in expression of serum protein was determined using densitometry analysis of western blots using ImageJ (C). CETP activity in serum was estimated using CETP activity kit (name of kit/manufacturer) (D). Values represent the means±SD of three independent experiments. * where p≤0.05, and ** where p≤0.005.
The activity of CETP in mice plasma was determined using the CETP activity assay kit according to the manufacturer's instructions (FIG. 7D). CETP activity was […] in AP treated mice compared to Vehicle. This observation was in accordance with the CETP protein expression levels observed in Vehicle, AP and PL test groups. The expression levels of CETP have been reported to be linear with its activity.

MCF-7 cells [1] = conditions: as compared to BJ and triple negative BT20 cells; previously shown [1]; cited from earlier work
MCF-7 cells [2] = test: Viability of cancer cells, AP combined with chemotherapeutic drugs; assay type: cell-based, human; conditions: 24 h
Protocol: (§1) FIG. 13: The effect of AP on viability of BJ and MCF-7 cells when combined with different doses of various chemotherapeutic drugs for 24 h. Values represent the means±SD of three replicates.
(§2) We anticipated that AP might have the potential to reduce toxicity and increase efficacy of known chemotherapeutic drugs which may enhance the usage of these drugs at lower concentrations with increased cancer killing effects. To test this preliminary, we treated normal (BJ) and Cancer (MCF-7) cells with different chemotherapeutic drugs as summarized in FIG. 13.
(§3) It is also clear from data that the cancer killing effect achieved using 20 μM tamoxifen was possible to achieve using a combination of AP with 10 μM tamoxifen while enhancing the viability of normal cells at the same time.

BJ cells = test: Viability of normal cells, AP combined with chemotherapeutic drugs; assay type: cell-based, human
Protocol: as §1, §2, §3

CC(=O)Oc1cccc2c1C(=O)C=C(C)C2=O [AP, Acetyl Plumbagin]
CETP activity in plasma (CETP): elevated
selectivity against MCF-7 (MCF-7 cells [1]): selective activity
reduction of viability of cancer cells (MCF-7 cells [2]; AP in combination with 5-Florouracil): 76%
reduction of viability of cancer cells (MCF-7 cells [2]; AP with 10 μM of tamoxifen): 50%
increase of cell viability of normal cells (BJ cells; AP in combination with 5-Florouracil, 24 h): 7%
increase of viability of normal cells (BJ cells; AP with 10 μM of tamoxifen, 24 h): 7%
rescue of normal cells from toxic effects of tamoxifen (BJ cells; AP with tamoxifen at higher concentrations): unable to rescue
